In patent publication US20260224723A1, “ANTI-B7H3 ANTIBODY-DRUG CONJUGATE AND USE THEREOF” (Duality Biologics (Suzhou) Co., Ltd., priority 2022, published 2026):

Assay: Pharmacokinetic study, single intravenous infusion in cynomolgus monkeys
Conditions: both, cynomolgus monkey, in vivo
Protocol: 18 cynomolgus monkeys (half female and half male) were weighed one day before administration, stratified based on the weight, and then randomly divided into 3 groups (3 females and 3 males/group): a low dose group (1 mg/kg), a medium dose group (3 mg/kg), and a high dose group (10 mg/kg). […] Blood was collected from the forelimb veins of cynomolgus monkeys in each group, and treated samples of the blood collected at 0 h before and 0.5 […], and 672 h after the administration were used as PK samples. After the blood collection at each time point was completed, serum was obtained by centrifugation for sample analysis.

Structure (SMILES): CC[C@@]1(O)C(=O)OCc2c1cc1n(c2=O)Cc2c-1nc1cc(F)c(C)c3c1c2[C@@H](NC(=O)C[C@H](C)O)CC3 [P-III-30]
- AUC0-t (3 mg/kg): 1.07 ng·h/mL
- Cmax (3 mg/kg): 0.133 ng/mL
- AUC0-t (10 mg/kg): 44.5 ng·h/mL
